Laboratory results as given in the supplement of paper PMC8617591.

Experiments:
[1] = tested on: Mycobacterium tuberculosis Erdman (autoluminescent); experiment: Einf, fitted maximum growth inhibition of three-drug combination (fraction); higher = stronger maximal inhibition
Method: (§1)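 DiaMOND equipotent three-drug combination dose responses (10 doses, 1.5- or 2-fold spacing, centred on IC90) against autoluminescent M. tuberculosis Erdman in 8 in vitro models. Read-out is OD600, or luminescence for the intracellular and dormancy models, normalised to untreated wells. Hill-fit Einf, AUC25 and GRinf are potency metrics; FIC50 and FIC90 are total Loewe fractional inhibitory concentrations as log2 (negative = synergy).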

[2] = tested on: Mycobacterium tuberculosis Erdman (autoluminescent); experiment: AUC25, normalised area under dose response up to IC25 (three-drug combination) (fraction (0-1)); higher = more potent at low dose
Method: as §1

[3] = tested on: Mycobacterium tuberculosis Erdman (autoluminescent); experiment: total FIC90 (Loewe) at 90% inhibition, three-drug combination (log2); higher = more antagonistic
Method: as §1

[4] = tested on: Mycobacterium tuberculosis Erdman (autoluminescent); experiment: GRinf, maximum normalised growth rate inhibition (three-drug combination) (unitless (-1 to 1)); higher = less effect (negative = killing)
Method: as §1

[5] = tested on: Mycobacterium tuberculosis Erdman (autoluminescent); experiment: total FIC50 (Loewe) at 50% inhibition, three-drug combination (log2); higher = more antagonistic
Method: as §1

CC(=O)NC[C@H]1CN(c2ccc(N3CCOCC3)c(F)c2)C(=O)O1 [linezolid] + COc1c(N2C[C@@H]3CCCN[C@@H]3C2)c(F)cc2c(=O)c(C(=O)O)cn(C3CC3)c12 [moxifloxacin] + O=[N+]([O-])c1cn2c(n1)OC[C@@H](OCc1ccc(OC(F)(F)F)cc1)C2 [pretomanid]
Conditions | AUC25, [2] | Einf, [1] | GRinf, [4] | total FIC50, [5] | total FIC90, [3]
in vitro model: acidic pH 5.7, time point: constant (~7 days, model-specific) | 0.113 | 0.883 | -0.748 | 0.776 | –
in vitro model: acidic pH 5.7, time point: terminal (~4-5 doublings, model-specific) | 0.0579 | 0.945 | -0.404 | 1.08 | 0.694
in vitro model: intracellular J774, time point: constant = terminal | – | 0.954 | -0.659 | – | 1.38

Conditions | AUC25, [2] | Einf, [1] | GRinf, [4] | total FIC50, [5] | total FIC90, [3]
in vitro model: butyrate, time point: constant (~7 days, model-specific) | 0.0971 | 0.916 | 0.0148 | 0.594 | 0.801
in vitro model: butyrate, time point: terminal (~4-5 doublings, model-specific) | 0.0695 | 0.953 | 0.0166 | 0.499 | 0.736
in vitro model: cholesterol 0.05 mM, time point: constant (~7 days, model-specific) | 0.14 | 0.692 | -0.183 | 0.0017 | –
in vitro model: cholesterol 0.05 mM, time point: terminal (~4-5 doublings, model-specific) | 0.134 | 0.908 | -0.206 | 0.534 | 0.307
in vitro model: cholesterol-high 0.2 mM, time point: constant (~7 days, model-specific) | 0.121 | 0.923 | -0.45 | 0.187 | 1.91
in vitro model: cholesterol-high 0.2 mM, time point: terminal (~4-5 doublings, model-specific) | 0.117 | 0.989 | -0.722 | 0.117 | 0.839
in vitro model: dormancy (butyrate + nitrate, low O2), time point: constant (~7 days, model-specific) | 0.0437 | 0.879 | 0.219 | 0.988 | 0.456
in vitro model: dormancy (butyrate + nitrate, low O2), time point: terminal (~4-5 doublings, model-specific) | 0.0489 | 0.979 | -0.165 | 1.01 | 0.983
in vitro model: standard 7H9 glycerol, time point: constant = terminal | 0.0706 | 0.962 | -0.151 | 0.466 | 0.766
in vitro model: valerate, time point: constant (~7 days, model-specific) | 0.138 | 0.861 | -0.229 | -0.643 | –
in vitro model: valerate, time point: terminal (~4-5 doublings, model-specific) | 0.0994 | 0.918 | -0.0505 | -0.495 | 0.791

CC(C)/N=c1\cc2n(-c3ccc(Cl)cc3)c3ccccc3nc-2cc1Nc1ccc(Cl)cc1 [clofazimine] + CC[C@@H](CO)NCCN[C@@H](CC)CO [ethambutol] + COc1c(N2C[C@@H]3CCCN[C@@H]3C2)c(F)cc2c(=O)c(C(=O)O)cn(C3CC3)c12 [moxifloxacin]
Conditions | AUC25, [2] | Einf, [1] | GRinf, [4] | total FIC50, [5] | total FIC90, [3]
in vitro model: acidic pH 5.7, time point: constant (~7 days, model-specific) | 0.115 | 0.672 | -0.00432 | 1.25 | –
in vitro model: acidic pH 5.7, time point: terminal (~4-5 doublings, model-specific) | 0.0596 | 0.925 | -0.127 | 0.64 | -0.564
in vitro model: intracellular J774, time point: constant = terminal | – | 0.966 | -0.457 | – | -0.92

Conditions | AUC25, [2] | Einf, [1] | GRinf, [4] | total FIC50, [5] | total FIC90, [3]
in vitro model: butyrate, time point: constant (~7 days, model-specific) | 0.11 | 0.96 | -0.103 | 0.505 | –
in vitro model: butyrate, time point: terminal (~4-5 doublings, model-specific) | 0.0834 | 0.979 | -0.104 | 0.581 | 0.553
in vitro model: cholesterol 0.05 mM, time point: constant (~7 days, model-specific) | 0.123 | 0.651 | -0.615 | – | –
in vitro model: cholesterol 0.05 mM, time point: terminal (~4-5 doublings, model-specific) | 0.117 | 0.885 | -0.144 | 1.19 | –
in vitro model: cholesterol-high 0.2 mM, time point: constant (~7 days, model-specific) | 0.0933 | 0.95 | -0.699 | 0.429 | –
in vitro model: cholesterol-high 0.2 mM, time point: terminal (~4-5 doublings, model-specific) | 0.0951 | 1 | -0.973 | 0.534 | 0.957
in vitro model: dormancy (butyrate + nitrate, low O2), time point: constant (~7 days, model-specific) | 0.0862 | 0.817 | 0.451 | 0.137 | –
in vitro model: dormancy (butyrate + nitrate, low O2), time point: terminal (~4-5 doublings, model-specific) | 0.113 | 0.977 | -0.415 | 0.0118 | 0.798
in vitro model: standard 7H9 glycerol, time point: constant = terminal | 0.0915 | 0.971 | -0.184 | 0.258 | 0.732
in vitro model: valerate, time point: constant (~7 days, model-specific) | 0.132 | 0.864 | -0.0325 | 0.987 | –
in vitro model: valerate, time point: terminal (~4-5 doublings, model-specific) | 0.0712 | 0.903 | 0.0757 | 0.489 | -1.39

CC(C)/N=c1\cc2n(-c3ccc(Cl)cc3)c3ccccc3nc-2cc1Nc1ccc(Cl)cc1 [clofazimine] + CC[C@@H](CO)NCCN[C@@H](CC)CO [ethambutol] + CO[C@H]1/C=C/O[C@@]2(C)Oc3c(C)c(O)c4c(O)c(c(/C=N/N5CCN(C6CCCC6)CC5)c(O)c4c3C2=O)NC(=O)/C(C)=C\C=C\[C@H](C)[C@H](O)[C@@H](C)[C@@H](O)[C@@H](C)[C@H](OC(C)=O)[C@@H]1C [rifapentine]
Conditions | AUC25, [2] | Einf, [1] | GRinf, [4] | total FIC50, [5] | total FIC90, [3]
in vitro model: acidic pH 5.7, time point: constant (~7 days, model-specific) | 0.0945 | 0.877 | -0.109 | 0.153 | –
in vitro model: acidic pH 5.7, time point: terminal (~4-5 doublings, model-specific) | 0.0736 | 0.978 | -0.14 | 0.358 | 0.125
in vitro model: intracellular J774, time point: constant = terminal | – | 0.973 | -0.172 | – | -1.79

Conditions | AUC25, [2] | Einf, [1] | GRinf, [4] | total FIC50, [5] | total FIC90, [3]
in vitro model: butyrate, time point: constant (~7 days, model-specific) | 0.083 | 0.942 | -0.0595 | 0.37 | –
in vitro model: butyrate, time point: terminal (~4-5 doublings, model-specific) | 0.0656 | 0.972 | -0.043 | 0.422 | -0.0851
in vitro model: cholesterol 0.05 mM, time point: constant (~7 days, model-specific) | 0.111 | 0.703 | -0.0332 | – | –
in vitro model: cholesterol 0.05 mM, time point: terminal (~4-5 doublings, model-specific) | 0.0974 | 0.871 | -0.122 | 1.66 | –
in vitro model: cholesterol-high 0.2 mM, time point: constant (~7 days, model-specific) | 0.0285 | 0.928 | -0.371 | 1.18 | –
in vitro model: cholesterol-high 0.2 mM, time point: terminal (~4-5 doublings, model-specific) | 0.0668 | 1 | -0.81 | 1.37 | 1.24
in vitro model: dormancy (butyrate + nitrate, low O2), time point: constant (~7 days, model-specific) | 0.105 | 0.823 | 0.414 | -0.127 | –
in vitro model: dormancy (butyrate + nitrate, low O2), time point: terminal (~4-5 doublings, model-specific) | 0.128 | 0.99 | -0.336 | 0.0752 | 0.891
in vitro model: standard 7H9 glycerol, time point: constant = terminal | 0.105 | 0.92 | 0.0206 | -0.0963 | –
in vitro model: valerate, time point: constant (~7 days, model-specific) | 0.126 | 0.889 | 0.017 | 1.07 | –
in vitro model: valerate, time point: terminal (~4-5 doublings, model-specific) | 0.0898 | 0.925 | 0.0199 | 0.462 | 0.841
